Article PMC11228983, “Rapid Protein–Ligand Affinity Determination by Photoinduced Hyperpolarized NMR” (Journal of the American Chemical Society, 2024)
Residues, ends and D or L forms follow the SMILES beside them.

What was measured:
[1] = molecular target: T1, PDZ2 domain of human tyrosine phosphatase 1E (hPTP1E) (Homo sapiens, UniProt Q12923); assay: Competition CIDNP-KD assay with photo-CIDNP-active reporter peptide; format: binding; conditions: reporter WVSAV 20 μM (KD,R 170 μM), 5 μM PDZ2; 1000 ms irradiation, single scan; read-out: Competition CIDNP-KD (KD,C), Hβ of reporter WVSAV
T1 construct: the constructs used for the PDZ2 domain of human tyrosine phosphatase 1E; polyhistidine (N); made in house; host or cells: Escherichia coli BL21 (DE3)
T1 sequence (Q12923 1368-1452 limits assumed): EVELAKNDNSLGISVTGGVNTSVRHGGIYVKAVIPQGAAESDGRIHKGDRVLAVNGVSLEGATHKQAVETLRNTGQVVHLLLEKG
Excerpt: Photo-CIDNP hyperpolarization is limited to a particular chemical space of ligands that contain heteroaromatics and heterosubstituted aromatic rings.[24],[29] To address the challenge of limited chemical space, we extend CIDNP-KD to measure the affinity of nonpolarizable ligands through competition with a polarizable reporter ligand R, whose affinity KD,R is known as depicted in Scheme 2. By adding a competitor C, the concentration and photo-CIDNP signal of the reporter ligand R* will increase, indicating the reduced amount of the complex PR* and, by extension, PR.[30]
To calculate the concentration of the ligand–protein complex in the presence of the binding competitor, the ratio of the amplification factors in the presence and absence of the competitor [drawing 6] […]
These competitor ligands lack a tryptophan residue, whereas the reporter ligands WVSAV and WQVSAV are photo-CIDNP-active due to the tryptophan tag. The hyperpolarized signal of WVSAV or WQVSAV in the presence of the PDZ2 domain was measured for increasing concentrations of the peptides QVSAV or ENEQVSAV, respectively. […]
Figure 3 KD determination of nonphoto-CIDNP-active peptides binding to a PDZ2 domain. […] The bound reporter population is plotted, calculated from the hyperpolarized tryptophan Hβ using eq 7. […] Each data point is measured with a single-scan experiment with a laser irradiation duration of (A) 1000 ms or (B) 2000 ms. […]

[2] = molecular target: T1, PDZ2 domain of human tyrosine phosphatase 1E (hPTP1E); assay: 2D [1H,15N]-HSQC chemical shift perturbation titration; format: binding; conditions: 30 μM 15N PDZ2, pH 6.8, 298 K
Experimental: We compared the affinities of the peptides obtained via CIDNP-KD with the state-of-the-art 2D [^1H, ^15N]-HSQC titration experiments measured with 30 μM PDZ2 (Figure S3).
Expression and purification were carried out as in previously reported procedures. In short, expression in Escherichia coli cells (BL21 (DE3)) and purification via Ni-NTA chromatography as the constructs used for the PDZ2 domain of human tyrosine phosphatase 1E and human PIN1 both contained N-terminal polyhistidine tags. Both protein constructs were measured in an NMR buffer consisting of 50 mM NaCl, 20 mM KPO4, and 10% D2O at pH 6.8. For the control [^1H, ^15N]-HSQC experiments, the PDZ2 domain was expressed in ^15N-enriched minimal medium.[34],[43]
All photo-CIDNP and STD-NMR experiments were recorded at 298 K on a Bruker Avance III HD 600 MHz spectrometer equipped with a cryoprobe. The [^15N, ^1H] – HSQC titration experiments of the PDZ2 domain were performed also at 298 K on another Bruker Avance IIII HD 600 MHz spectrometer equipped with a cryoprobe and SampleJet.
Peak picking was performed with the maximal peak picking tool of Mnova software. Plotting, fitting, and data analysis was done in RStudio with the workflow described above. The [^15N, ^1H]-HSQC reference affinities were analyzed with CCPNMR3.1.[62] The backbone assignment was taken from BMRB 34688.
Fig. S3: 2D [15N, 1H]-HSQC titration of peptides to hPDZ2 domain. The 2D [ 15N, 1H]-
HSQC spectra of the titration series in presence of 30 µM hPDZ2 domain and the
corresponding observed chemical shift difference of A74 plotted versus the peptide
(1 picture or pasted object on this page, not shown here)

A Kd [1] of 580 ± 30 µM, a Kd ([2]; 15N–1H moiety of A74, read-out: [1H,15N]-HSQC–CSP KD, NH of A74) of 155 ± 10 µM and a Kd ([2]; range over residues, read-out: [1H,15N]-HSQC–CSP KD range of all residues showing chemical shift perturbation) of 90 to 750 µM were found for `CC(C)[C@H](NC(=O)[C@H](C)NC(=O)[C@H](CO)NC(=O)[C@@H](NC(=O)[C@@H](N)CCC(N)=O)C(C)C)C(=O)O` [QVSAV] (H-QVSAV-OH) in this work.
